Test results published in a compilation of properties of binary mixtures (doi:10.1016/j.molliq.2017.07.014).

Assay: xn = mol fraction of the nth substance listed
Conditions: 101 kPa

CCCC[P+](C)(CCCC)CCCC.COS(=O)(=O)[O-] + CN1CCCC1=O
Conditions	speed of sound [m/s]	viscosity [mPa·s]
293.15 K, x1 = 0.056	1574	9.6
293.15 K, x1 = 0.0914	1580	19.6
293.15 K, x1 = 0.1311	1585	28
293.15 K, x1 = 0.1773	1588	43
293.15 K, x1 = 0.2318	1590	67
293.15 K, x1 = 0.2971	1587	100
293.15 K, x1 = 0.3764	1582	138
293.15 K, x1 = 0.4752	1578	188
293.15 K, x1 = 0.6014	1575	290
293.15 K, x1 = 0.7129	1573	440
293.15 K, x1 = 0.8515	1568	580
293.15 K, x1 = 0.9022	1566	630
293.15 K, x1 = 0.9468	1565	680
293.15 K, x1 = 1	1564	730
298.15 K, x1 = 0.0914	1576	13.2
298.15 K, x1 = 0.1311	1580	18
298.15 K, x1 = 0.1773	1584	23.7
298.15 K, x1 = 0.2318	1585	39
298.15 K, x1 = 0.2971	1581	51
298.15 K, x1 = 0.4752	1572	114
298.15 K, x1 = 0.6014	1567	170
298.15 K, x1 = 0.8515	1553	410
298.15 K, x1 = 0.9022	1551	450
298.15 K, x1 = 0.9468	1549	490
303.15 K, x1 = 0.056	1556	2.01
303.15 K, x1 = 0.1311	1564	7.8
303.15 K, x1 = 0.3764	1561	40
303.15 K, x1 = 0.4752	1557	65
303.15 K, x1 = 0.6014	1552	108
303.15 K, x1 = 0.7129	1548	198
303.15 K, x1 = 0.8515	1538	300
303.15 K, x1 = 1	1530	380
308.15 K, x1 = 0.056	1536	2.01
308.15 K, x1 = 0.0914	1540	2.5
308.15 K, x1 = 0.1311	1544	3.4
308.15 K, x1 = 0.1773	1548	6.4
308.15 K, x1 = 0.2318	1549	8.9
308.15 K, x1 = 0.2971	1546	13.9
308.15 K, x1 = 0.3764	1542	20.5
308.15 K, x1 = 0.4752	1539	31
308.15 K, x1 = 0.6014	1536	67
308.15 K, x1 = 0.7129	1533	131
308.15 K, x1 = 0.8086	1528	192
308.15 K, x1 = 0.8515	1524	221
308.15 K, x1 = 0.9022	1522	245
308.15 K, x1 = 0.9468	1519	270
308.15 K, x1 = 1	1514	290
313.15 K, x1 = 0.0914	1536	2.21
313.15 K, x1 = 0.1311	1539	3.2
313.15 K, x1 = 0.2318	1542	6.8
313.15 K, x1 = 0.2971	1539	12.1
313.15 K, x1 = 0.3764	1535	15.2
313.15 K, x1 = 0.4752	1531	17.7
313.15 K, x1 = 0.6014	1526	45
313.15 K, x1 = 0.7129	1522	95
313.15 K, x1 = 0.8086	1517	144
313.15 K, x1 = 0.8515	1515	166
313.15 K, x1 = 0.9022	1509	186
313.15 K, x1 = 0.9468	1507	201
313.15 K, x1 = 1	1499	217
318.15 K, x1 = 0.056	1511	1.1
318.15 K, x1 = 0.0914	1518	2.5
318.15 K, x1 = 0.1311	1522	4.5
318.15 K, x1 = 0.1773	1523	6.4
318.15 K, x1 = 0.2971	1521	10.2
318.15 K, x1 = 0.3764	1518	12.1
318.15 K, x1 = 0.4752	1515	12.3
318.15 K, x1 = 0.6014	1511	32
318.15 K, x1 = 0.8515	1502	128
318.15 K, x1 = 0.9022	1498	144
318.15 K, x1 = 0.9468	1495	159
318.15 K, x1 = 1	1486	169
323.15 K, x1 = 0.056	1506	1.11
323.15 K, x1 = 0.1311	1517	3.8
323.15 K, x1 = 0.1773	1518	5.7
323.15 K, x1 = 0.2318	1518	10.1
323.15 K, x1 = 0.2971	1515	11.1
323.15 K, x1 = 0.3764	1512	13.1
323.15 K, x1 = 0.4752	1508	13.2
323.15 K, x1 = 0.7129	1499	59
323.15 K, x1 = 0.8086	1495	88
323.15 K, x1 = 0.8515	1491	103
323.15 K, x1 = 0.9022	1488	116
323.15 K, x1 = 0.9468	1484	124
323.15 K, x1 = 1	1472	133

CN1CCCC1=O + CCCC[P+](C)(CCCC)CCCC.COS(=O)(=O)[O-]
x2 = 0
Conditions	speed of sound [m/s]	viscosity [mPa·s]
293.15 K	1570	1.9
298.15 K	1566	1.66
303.15 K	1552	1.49
308.15 K	1527	1.38
313.15 K	1518	1.3
318.15 K	1497	1.21
323.15 K	1491	1.15
